This is an account of results in patent US11173151B2, “Substituted triazole derivatives and uses thereof” (BAYER AKTIENGESELLSCHAFT, priority 2017, dated 2021).

One may read the IC50 as the midpoint of a concentration-inhibition curve.

In assay [1] the target is T1, human V1a receptor (Homo sapiens, UniProt P37288).
T1 construct: expressed in transfected cells; host or cells: CHO K1 (ATCC), also stably transfected with a modified aequorin
Kind of assay: Cellular in vitro assay for determining vasopressin receptor activity, V1a receptor cell line (CHO, aequorin luminescence). It is filed as cell-based. The settings on record: for IC50: CHO cell line transfected with human V1a receptor, [Arg]-vasopressin at EC50 concentration, read-out: IC50 hV1a; for ratio IC50 hV2/hV1a: selectivity ratio IC50 hV2 / IC50 hV1a. The method in brief:
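Antagonism is measured in stable CHO K1 transfectants coexpressing the Gαq-coupled receptor and a calcium-sensitive aequorin photoprotein. Agonist challenge uses [Arg]-vasopressin at EC50 after a 10-minute compound exposure; IC50 values come from the luminescence signal.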

Assay [2] has as its target T2, human V2 receptor (Homo sapiens, UniProt P30518).
T2 construct: expressed in transfected cells; host or cells: CHO K1 (ATCC) expressing firefly luciferase under a CRE-responsive promoter
Kind of assay: Cellular in vitro assay for determining vasopressin receptor activity, V2 receptor cell line (CHO, CRE-luciferase). The conditions noted are these: CHO cell line transfected with human V2 receptor; [Arg8]-vasopressin at EC50 concentration, 3 hours; read-out: IC50 hV2. It is filed as cell-based.

T1 sequence (P37288 whole entry): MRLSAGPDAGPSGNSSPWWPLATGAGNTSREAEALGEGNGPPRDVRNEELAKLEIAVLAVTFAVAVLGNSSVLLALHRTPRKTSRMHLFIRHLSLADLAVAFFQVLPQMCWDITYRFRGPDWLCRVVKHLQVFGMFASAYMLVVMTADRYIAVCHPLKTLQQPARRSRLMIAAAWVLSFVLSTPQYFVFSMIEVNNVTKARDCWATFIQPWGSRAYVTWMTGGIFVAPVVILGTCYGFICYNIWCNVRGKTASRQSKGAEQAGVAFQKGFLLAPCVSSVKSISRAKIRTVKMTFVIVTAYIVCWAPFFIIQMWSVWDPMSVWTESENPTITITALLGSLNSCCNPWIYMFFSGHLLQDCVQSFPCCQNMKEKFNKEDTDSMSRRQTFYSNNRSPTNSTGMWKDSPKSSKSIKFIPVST
T2 sequence (P30518 whole entry): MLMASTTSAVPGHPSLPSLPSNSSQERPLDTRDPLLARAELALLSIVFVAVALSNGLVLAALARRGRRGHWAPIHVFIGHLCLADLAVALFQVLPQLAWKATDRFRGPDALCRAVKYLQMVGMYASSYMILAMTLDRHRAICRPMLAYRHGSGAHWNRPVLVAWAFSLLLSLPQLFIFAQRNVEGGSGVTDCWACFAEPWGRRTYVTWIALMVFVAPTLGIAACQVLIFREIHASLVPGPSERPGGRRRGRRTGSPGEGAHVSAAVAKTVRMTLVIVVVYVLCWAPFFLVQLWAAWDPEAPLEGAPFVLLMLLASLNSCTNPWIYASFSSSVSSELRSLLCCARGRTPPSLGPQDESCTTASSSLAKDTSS

Regarding `O=C(Nc1cccnc1-n1cnc(Cn2nc(-c3ccc(Cl)cc3)n(C[C@H](O)C(F)(F)F)c2=O)n1)C1CC1` [Example 44, N-{2-[3-({3-(4-Chlorophenyl)-5-oxo-4-[(2S)-3,3,3-trifluoro-2-hydroxypropyl]-4,5-dihydro-1H-1,2,4-triazol-1-yl}methyl)-1H-1,2,4-triazol-1-yl]pyridin-3-yl}cyclopropanecarboxamide], in assay [1], the IC50 stood at 4.25 nM and the “ratio IC50 hV2/hV1a” value is given as 84.7. Besides, the 50% inhibitory concentration (IC50) in assay [2] turned out to be 360 nM.

In the case of `O=C(CC1CC1)Nc1cccnc1-n1cnc(Cn2nc(-c3ccc(Cl)cc3)n(C[C@H](O)C(F)(F)F)c2=O)n1` [Example 46, N-{2-[3-({3-(4-Chlorophenyl)-5-oxo-4-[(2S)-3,3,3-trifluoro-2-hydroxypropyl]-4,5-dihydro-1H-1,2,4-triazol-1-yl}methyl)-1H-1,2,4-triazol-1-yl]pyridin-3-yl}-2-cyclopropylacetamide], in assay [1], the IC50 was 32 nM and the “ratio IC50 hV2/hV1a” value is 49.0. Moreover, in assay [2], the half-inhibitory concentration (IC50) was 1570 nM.

As for `O=C(Nc1cccnc1-n1cnc(Cn2nc(-c3ccc(Cl)cc3)n(C[C@H](O)C(F)(F)F)c2=O)n1)C1(C(F)(F)F)CC1` [Example 47, N-{2-[3-({3-(4-Chlorophenyl)-5-oxo-4-[(2S)-3,3,3-trifluoro-2-hydroxypropyl]-4,5-dihydro-1H-1,2,4-triazol-1-yl}methyl)-1H-1,2,4-triazol-1-yl]pyridin-3-yl}-1-(trifluoromethyl)cyclopropanecarboxamide], the concentration for half-maximal inhibition (IC50) turned out to be 7 nM in assay [1] and 283 nM in assay [2]. The “ratio IC50 hV2/hV1a” value in assay [1] is listed as 40.5.

For `O=C(Nc1cccnc1-n1cnc(Cn2nc(-c3ccc(Cl)cc3)n(C[C@H](O)C(F)(F)F)c2=O)n1)C1CC(F)(F)C1` [Example 48, N-{2-[3-({3-(4-Chlorophenyl)-5-oxo-4-[(2S)-3,3,3-trifluoro-2-hydroxypropyl]-4,5-dihydro-1H-1,2,4-triazol-1-yl}methyl)-1H-1,2,4-triazol-1-yl]pyridin-3-yl}-3,3-difluorocyclobutanecarboxamide], in assay [1], the concentration for half-maximal inhibition (IC50) came out at 7.05 nM and the “ratio IC50 hV2/hV1a” value is recorded as 79.0. Also, in assay [2], the half-inhibitory concentration (IC50) is 557 nM.

`CS(=O)(=O)CC(=O)Nc1cccnc1-n1cnc(Cn2nc(-c3ccc(Cl)cc3)n(C[C@H](O)C(F)(F)F)c2=O)n1` [Example 49, N-{2-[3-({3-(4-Chlorophenyl)-5-oxo-4-[(2S)-3,3,3-trifluoro-2-hydroxypropyl]-4,5-dihydro-1H-1,2,4-triazol-1-yl}methyl)-1H-1,2,4-triazol-1-yl]pyridin-3-yl}-2-(methylsulfonyl)acetamide]: in assay [1], the IC50 came out at 4.8 nM and the “ratio IC50 hV2/hV1a” value amounted to 230.2. For the same molecule, the IC50 in assay [2] was determined as 1100 nM.

With `CS(=O)(=O)NCC(=O)Nc1cccnc1-n1cnc(Cn2nc(-c3ccc(Cl)cc3)n(C[C@H](O)C(F)(F)F)c2=O)n1` [Example 53, N-{2-[3-({3-(4-Chlorophenyl)-5-oxo-4-[(2S)-3,3,3-trifluoro-2-hydroxypropyl]-4,5-dihydro-1H-1,2,4-triazol-1-yl}methyl)-1H-1,2,4-triazol-1-yl]pyridin-3-yl}-N^2-(methylsulfonyl)glycinamide], the half-inhibitory concentration (IC50) came to 31.5 nM in assay [1] and 2250 nM in assay [2]. In addition, the “ratio IC50 hV2/hV1a” value in assay [1] came out at 71.4.

For the molecule `O=C(Nc1cccnc1-n1cnc(Cn2nc(-c3ccc(Cl)cc3)n(C[C@H](O)C(F)(F)F)c2=O)n1)C1CC1F` (stereo partly drawn) [Example 54, N-{2-[3-({3-(4-Chlorophenyl)-5-oxo-4-[(2S)-3,3,3-trifluoro-2-hydroxypropyl]-4,5-dihydro-1H-1,2,4-triazol-1-yl}methyl)-1H-1,2,4-triazol-1-yl]pyridin-3-yl}-2-fluorocyclopropanecarboxamide], in assay [1], the IC50 was found to be 4.5 nM and the “ratio IC50 hV2/hV1a” value was determined as 90.4. In addition, the IC50 in assay [2] was found to be 407 nM.
